Source: US20240016795A1, “BROMODOMAIN INHIBITORS FOR ANDROGEN RECEPTOR-DRIVEN CANCERS” (FORMA Therapeutics, Inc., priority 2020, published 2024)
“And” between values parts separate entries of the source, which are not always exact repeats. Identical values can stand only once. Like-named read-outs stand apart in the source and are kept apart here.

Tests used:
[1] = system: SPDEF; assay: qPCR gene expression in VCaP, SPDEF; type: cell-based; details: Homo sapiens, 24 h
Procedure: (§1) RNA was extracted using Qiacube RNAeasy Mini (Qiagen). For all genes tested, the qPCR reactions were carried out in triplicate with 250 ng RNA per reaction and Taqman® primer-probes. GAPDH was used as a housekeeping gene.

[2] = system: HCC1187; assay: 10-day CellTiter-Glo antiproliferative assay, HCC1187; type: cell-based; details: Homo sapiens, HCC1187, 240 h, 10-day exposure, AR High, ER −, Her2 −
Procedure: (§2) Breast cell lines were cultured according to the distributor's recommendations. The following day, cells were exposed to compounds up to 10 days. Cell viability was assessed using a CellTiter-Glo® assay (Promega) at the end of the incubation period. The growth inhibitory effect was assessed by the concentration inhibiting growth by 50% using a nonlinear regression equation and a variable slope (Graphpad Prism). The mRNA expression levels for the androgen receptor (HUGO: AR) was determined from the DepMap Portal database (release 19Q2).

[3] = system: XBP1; assay: Taqman gene expression in AR-positive breast cancer cells, XBP1; type: cell-based; details: 24 hours, read-out: IC50, XBP1 mRNA
Procedure: (§3) AR-positive breast cancer cells were exposed to increasing concentrations of compounds for 24 hours. RNA was extracted and gene expression measured using Taqman® assays for TMPRSS2 and XBP1.

[4] = system: MYC; assay: qPCR gene expression in 22Rv1, MYC; type: cell-based; details: Homo sapiens, 22Rv1, 24 h
Procedure: as §1

[5] = system: SORD; assay: qPCR gene expression in 22Rv1, SORD; type: cell-based; details: Homo sapiens, 22Rv1, 24 h
Procedure: as §1

[6] = system: KLK3 (PSA); assay: qPCR gene expression in VCaP, KLK3 (PSA); type: cell-based; details: Homo sapiens, 24 h
Procedure: as §1

[7] = system: VCaP; assay: 10-day prostate cancer cell proliferation assay, VCaP; type: cell-based; details: Homo sapiens, VCaP, 240 h; 10 days exposure; WT, AR amplification, androgen-dependent
Procedure: (§4) Prostate cell lines were obtained from ATCC or DSMZ and cultured according to the distributor's recommendations. Prostate cancer cells were plated and incubated overnight. […] Cell viability was assessed using a CellTiter-Glo® assay (Promega) after 10 days drug exposure. The growth inhibitory effect was assessed by the concentration inhibiting growth by 50% using a nonlinear regression equation and a variable slope (Graphpad Prism).

[8] = system: H3K27Ac; assay: H3K27Ac western blot in a prostate cancer cell line; type: cell-based
[9] = system: AR+ prostate cancer cell lines (LnCaP, VCaP, 22Rv1); assay: 10-day proliferation assay, all AR+ prostate cancer cell lines; type: cell-based; details: 240 h; 10-day assay; read-out: growth inhibitory effect (IC50), all AR+ cell lines
Procedure: (§5) Two AR-negative prostate cancer cell lines DU145 and PC-3 were also evaluated.
as §4

[10] = system: AR-negative prostate cancer cell lines DU145 and PC-3; assay: 10-day proliferation assay, AR-negative prostate cancer cell lines; type: cell-based; details: 10-day assay
Procedure: as §5, §4

[11] = system: TMPRSS2; assay: qPCR gene expression in VCaP, TMPRSS2; type: cell-based; details: Homo sapiens, 24 h
Procedure: as §1

[12] = system: panel of 10 BRD representing the various branches of the bromodomain tree; assay: AlphaScreen panel of 10 bromodomains; type: binding
[13] = system: MYC; assay: qPCR gene expression in VCaP, MYC; type: cell-based; details: Homo sapiens, 24 h
Procedure: as §1

[14] = system: PC-3; assay: 10-day prostate cancer cell proliferation assay, PC-3; type: cell-based; details: Homo sapiens, PC-3, 240 h; 10 days exposure; AR negative
Procedure: as §4

[15] = system: MDA-MB-231; assay: 10-day CellTiter-Glo antiproliferative assay, MDA-MB-231; type: cell-based; details: Homo sapiens, MDA-MB-231, 240 h, 10-day exposure, AR Low, ER −, Her2 −
Procedure: as §2

[16] = biological target: p300 bromodomain (Homo sapiens (Human), UniProt Q09472); assay: Time-resolved fluorescence biochemical assay, p300; type: binding; details: GST fusion of the p300 bromodomain
p300 bromodomain, sequence (Q09472 1049-1156): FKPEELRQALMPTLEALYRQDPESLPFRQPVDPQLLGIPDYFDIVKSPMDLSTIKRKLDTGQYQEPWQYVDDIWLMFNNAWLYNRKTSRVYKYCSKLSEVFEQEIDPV
Description: Data is fitted using the Levenburg Marquardt algorithm. […] Data is fitted using the Levenburg Marquardt algorithm.

[17] = system: CAL148; assay: 10-day CellTiter-Glo antiproliferative assay, CAL148; type: cell-based; details: Homo sapiens, CAL-148, 240 h, 10-day exposure, AR Low, ER −, Her2 −
Procedure: as §2

[18] = system: FKBP5; assay: qPCR gene expression in VCaP, FKBP5; type: cell-based; details: Homo sapiens, 24 h
Procedure: as §1

[19] = system: MFM223; assay: 10-day CellTiter-Glo antiproliferative assay, MFM223; type: cell-based; details: Homo sapiens, MFM-223, 240 h, 10-day exposure, AR Low, ER −, Her2 −
Procedure: as §2

[20] = system: 22Rv1; assay: 10-day prostate cancer cell proliferation assay, 22Rv1; type: cell-based; details: Homo sapiens, 22Rv1, 240 h
Procedure: as §4

[21] = system: AR target genes; assay: Reduction of AR target genes in VCaP cells; type: cell-based; details: Homo sapiens, 24 hr exposure
Procedure: as §1

[22] = system: TMPRSS2; assay: Taqman gene expression in AR-positive breast cancer cells, TMPRSS2; type: cell-based; details: 24 hours, read-out: IC50, TMPRSS2 mRNA
Procedure: as §3

[23] = system: AR target genes; assay: Reduction of AR target genes in 22Rv1 cells; type: cell-based; details: Homo sapiens, 24 hr exposure
Procedure: as §1

[24] = system: H3K27Ac; assay: H3K27Ac western blot in MDA-MB-453 cells; type: cell-based; details: MDA-MB-453, 24 hrs, western blot
Procedure: H3K27Ac is a specific mark of CBP/p300 activity and thus offers a means to directly assess the impact of CBP/p300 inhibition in cells.
MDA-MB-453 cells were plated overnight and exposed to the compounds for 24 hours. Lysates were prepared from the cells in E-PAGE loading buffer (Invitrogen) and analyzed by western blot with antibodies diluted 1:1000 for anti-H3K27Ac, 1:2000 for anti-total H3 and 1:10,000 for anti-β actin. The blots were scanned and analyzed on a LI-COR Odyssey image analyzer. H3K27Ac levels were normalized to β-Actin.
Finally, a washout experiments was carried out with compound 4 to assess the recovery of the biomarker after removal of the compound. […] Lysates were prepared and analyzed by western blot, as described above.

[25] = system: LNCaP; assay: 10-day prostate cancer cell proliferation assay, LNCaP; type: cell-based; details: Homo sapiens, LNCaP, 240 h; 10 days exposure; T878A/WT, androgen-dependent
Procedure: as §4

SMILES: COC(=O)N1c2ccc3c(nc([C@H](O)c4cc(F)ccc4OC)n3[C@@H]3CCC[C@@H](C(=O)O)C3)c2CC[C@@H]1C [Compound 1, (1R,3R)-3-[(7S)-2-[(R)-(5-fluoro-2-methoxyphenyl)(hydroxy)methyl]-6-(methoxycarbonyl)-7-methyl-3H,6H,7H,8H,9H-imidazo[4,5-f]quinolin-3-yl]cyclohexane-1-carboxylic acid]
- IC50 [1]: > 0.1 µM
- IC50 [2]: 0.2 to 0.5 µM
- IC50 [3]: < 100 nM
- IC50 [4]: > 0.1 µM
- IC50 [5]: > 0.1 µM
- IC50 [6]: 0.01 to 0.05 µM
- IC50 [7]: 500 to 1000 nM
- H3K27Ac level [8]: reduces H3K27Ac in a concentration-dependent manner
- IC50 [9]: 500 to 1500 nM
- antiproliferative effect, AR-negative cell lines [10]: inactive
- IC50 [11]: 0.01 to 0.05 µM
- activity against panel of bromodomains [12]: inactive against 8
- IC50 ([12]; read-out: IC50 in multiple assays of the panel of 10 bromodomains): > 10000 nM
- IC50 [13]: 0.05 to 0.1 µM
- IC50 [14]: > 1000 nM
- IC50 [15]: > 1 µM
- IC50 [16]: < 2 nM and ~1 nM
- IC50 [17]: > 1 µM
- IC50 [18]: > 0.1 µM
- IC50 [19]: > 1 µM
- IC50 ([20]; 10-day assay, read-out: anti-proliferative effect (IC50), 22Rv1): 500 to 1000 nM
- IC50 ([20]; 10 days exposure, H857Y/H857Y, AR v7+, androgen-independent, read-out: IC50, 22Rv1): 500 to 1000 nM
- IC50 [21]: < 500 nM
- IC50 [22]: < 100 nM
- IC50 [23]: < 500 nM
- H3K27Ac level [24]: concentration dependent reduction
- IC50 [25]: > 1000 nM
